Source: patent US9416141B2 (University of Washington through its Center for …, priority 2012, dated 2016)
Structures can show the parent of a compound that is named as a salt.

Tested on: hair cells
Assay: Hair cell toxicity assay in zebrafish (neomycin-induced hair cell death, DASPEI staining of neuromasts)
Type: in vivo
Settings: Danio rerio; for Emax at 25 µM: maximum observed @ 25 μM test compound; for EC50: zebrafish larvae 5-7 dpf, 1 h pre-treatment, then 200 micromolar neomycin + test compound 30 min, read-out: HC50 (concentration that would produce 50% hair cell survival); for Emax at 2.8 µM: maximum observed @ 2.8 μM test compound; for Emax at 8.3 µM: maximum observed @ 8.3 μM test compound
How it was run: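 Zebrafish larvae 5-7 dpf pre-treated 1 h with compound (0.010-25 μM), then 30 min with 200 μM neomycin plus compound. DASPEI stained 10 neuromasts per fish, scored 0-2 (total 0-20), normalised to vehicle controls as % hair cell survival. HC50 linearly interpolated if survival reached ≥50%; HCmax is maximum survival.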

[1] = 200 micromolar neomycin, read-out: Max HC Protection (HCmax, % hair cell survival)

SMILES	Emax at 25 µM [1] [%]	EC50 [nM]	also measured
CCN1CCc2c(sc(NC(=O)Nc3ccc(C(=O)O)cc3)c2C(N)=O)C1 [Example 32, 4-[3-(3-Carbamoyl-6-ethyl-4,5,6,7-tetrahydrothieno[2,3-c]pyridin-2-yl)ureido]benzoic acid trifluoroacetate]	19	–	–
CCN1CCc2c(sc(NC(=O)Nc3ccc(C(=O)c4ccccc4)cc3)c2C(N)=O)C1 [Example 88, 2-[3-(4-Benzoylphenyl)ureido]-6-ethyl-4,5,6,7-tetrahydrothieno[2,3-c]pyridine-3-carboxamide]	88	1000 to 10000	–
CC[N+]1(C)CCc2c(ccc(NC(=O)Nc3ccc(Cl)cc3)c2C(N)=O)C1 (stereo not shown) [Example 172, 5-Carbamoyl-6-[3-(4-chlorophenyl)ureido]-2-ethyl-2-methyl-1,2,3,4-tetrahydroisoquinolin-2-ium iodide]	66	> 10000	–
CC(C)C[N+]1(C)CCc2c(sc(NC(=O)Nc3ccc4ccccc4c3)c2C(N)=O)C1 (stereo not shown) [Example 175, 3-Carbamoyl-6-isobutyl-6-methyl-2-[3-(naphthalen-2-yl)ureido]-4,5,6,7-tetrahydrothieno[2,3-c]pyridin-6-ium iodide]	111	< 1000	–
CC(C)(C)OC(=O)CCC[N+]1(CC2CCC2)CCc2c(sc(NC(=O)Nc3ccc(Cl)cc3)c2C(N)=O)C1 (stereo not shown) [Example 199, 6-[4-(tert-Butoxy)-4-oxobutyl]-3-carbamoyl-2-[3-(4-chlorophenyl)ureido]-6-(cyclobutylmethyl)-4,5,6,7-tetrahydrothieno[2,3-c]pyridin-6-ium trifluoroacetate]	–	< 1000	Emax at 0.3 µM (maximum observed @ 0.3 μM test compound, 200 micromolar neomycin, read-out: Max HC Protection (HCmax, % hair cell survival)): 68%
NC(=O)c1c(NC(=O)Nc2ccc(Cl)cc2)sc2c1CCN(C1COC1)C2 [Example 6, 2-[3-(4-Chlorophenyl)ureido]-6-(oxetan-3-yl)-4,5,6,7-tetrahydrothieno[2,3-c]pyridine-3-carboxamide hydrochloride]	72	1000 to 10000	–
COC(=O)CCCN1CCc2c(sc(NC(=O)Nc3ccc(Cl)cc3)c2C(N)=O)C1 [Example 20, Methyl 4-{3-carbamoyl-2-[3-(4-chlorophenyl)ureido]-4,5-dihydrothieno[2,3-c]pyridin-6(7H)-yl}butanoate hydrochloride]	65	1000 to 10000	–
NC(=O)c1c(NC(=O)Nc2ccc(Cl)cc2)sc2c1CCN1CCCCC21 (racemic) [Example 118, (+/−)-2-[3-(4-Chlorophenyl)ureido]-5,7,8,9,10,10a-hexahydro-4H-thieno[2,3-a]quinolizine-3-carboxamide hydrochloride]	99	1000 to 10000	–
CC(C)(C)C[N+]1(C)CCc2c(sc(NC(=O)Nc3ccc(Cl)cc3)c2C(N)=O)C1 (stereo not shown) [Example 171, 3-Carbamoyl-2-[3-(4-chlorophenyl)ureido]-6-methyl-6-neopentyl-4,5,6,7-tetrahydrothieno[2,3-c]pyridin-6-ium iodide]	–	< 1000	Emax at 2.8 µM [1]: 92%
CC(C)(C)OC(=O)NCCCN1CCc2c(sc(NC(=O)Nc3ccc4ccccc4c3)c2C(N)=O)C1 [Example 206, tert-Butyl N-[3-(3-carbamoyl-2-{[(naphthalen-2-yl)carbamoyl]amino}-4H,5H,6H,7H-thieno[2,3-c]pyridin-6-yl)propyl]carbamate]	–	1000 to 10000	Emax at 6.3 µM (maximum observed @ 6.3 μM test compound, 200 micromolar neomycin, read-out: Max HC Protection (HCmax, % hair cell survival)): 88%
CCN1CCc2c(sc(NC(=O)Nc3cncc(Cl)c3)c2C(N)=O)C1 [Example 77, 2-[3-(5-Chloropyridin-3-yl)ureido]-6-ethyl-4,5,6,7-tetrahydrothieno[2,3-c]pyridine-3-carboxamide dihydrochloride]	45	–	–
CN1CCC(N2CCc3c(sc(NC(=O)Nc4ccc(Cl)cc4)c3C(N)=O)C2)CC1 [Example 8, 2-[3-(4-Chlorophenyl)ureido]-6-(1-methylpiperidin-4-yl)-4,5,6,7-tetrahydrothieno[2,3-c]pyridine-3-carboxamide dihydrochloride]	84	> 10000	–
NC(=O)c1c(NC(=O)Nc2ccc(Cl)cc2)sc2c1CCN(CCN1CCCCC1)C2 [Example 44, 2-[3-(4-chlorophenyl)ureido]-6-[2-(piperidin-1-yl)ethyl]-4,5,6,7-tetrahydrothieno[2,3-c]pyridine-3-carboxamide ditrifluoroacetate]	98	1000 to 10000	–
CC[N+]1(C)CCc2c(sc(NC(=O)Nc3ccc(C(=O)c4ccccc4)cc3)c2C(N)=O)C1 (stereo not shown) [Example 168, 2-[3-(4-Benzoylphenyl)ureido]-3-carbamoyl-6-ethyl-6-methyl-4,5,6,7-tetrahydrothieno[2,3-c]pyridin-6-ium iodide]	–	–	Emax at 2.8 µM [1]: 20%
NC(=O)c1c(NC(=O)Nc2ccc(Cl)cc2)sc2c1CCC(=O)C2 [Example 91, 2-[3-(4-Chlorophenyl)ureido]-6-oxo-4,5,6,7-tetrahydrobenzo[b]thiophene-3-carboxamide]	–	–	Emax at 0.9 µM (maximum observed @ 0.9 μM test compound, 200 micromolar neomycin, read-out: Max HC Protection (HCmax, % hair cell survival)): 15%
C[N+]1(C)CCc2c(sc(NC(=O)Nc3ccc(Cl)cc3)c2C(N)=O)C1 [Example 162, 3-Carbamoyl-2-[3-(4-chlorophenyl)ureido]-6,6-dimethyl-4,5,6,7-tetrahydrothieno[2,3-c]pyridin-6-ium trifluoroacetate]	–	–	Emax at 2.8 µM [1]: 36%
CN(C)C(=O)CC[N+]1(C)CCc2c(sc(NC(=O)Nc3ccc(Cl)cc3)c2C(N)=O)C1 (stereo not shown) [Example 194, 3-Carbamoyl-2-[3-(4-chlorophenyl)ureido]-6-[3-(dimethylamino)-3-oxopropyl]-6-methyl-4,5,6,7-tetrahydrothieno[2,3-c]pyridin-6-ium chloride]	–	–	Emax at 2.8 µM [1]: 36%
NC(=O)c1c(NC(=O)Nc2ccc(Cl)cc2)sc2c1CCN(CCCNC(=O)CCc1cccc3ccccc13)C2 [Example 214, 2-{[(4-chlorophenyl)carbamoyl]amino}-6-{3-[3-(naphthalen-1-yl)propanamido]propyl}-4H,5H,6H,7H-thieno[2,3-c]pyridine-3-carboxamide]	–	< 1000	Emax at 2.8 µM [1]: 95%
CCN1CCc2c(sc(NC(=O)Nc3ccc(F)c(F)c3)c2C(N)=O)C1 [Example 70, 2-[3-(3,4-Difluorophenyl)ureido]-6-ethyl-4,5,6,7-tetrahydrothieno[2,3-c]pyridine-3-carboxamide hydrochloride]	64	1000 to 10000	–
CN(C)C1CCc2c(sc(NC(=O)Nc3ccc(Cl)cc3)c2C(N)=O)C1 (stereo not shown) [Example 42, 2-[3-(4-Chlorophenyl)ureido]-6-(dimethylamino)-4,5,6,7-tetrahydrobenzo[b]thiophene-3-carboxamide hydrochloride]	90	1000 to 10000	–
CN1CCCC12CCc1c(sc(NC(=O)Nc3ccc(Cl)cc3)c1C(N)=O)C2 (racemic) [Example 111, (+/−)-2-[3-(4-chlorophenyl)ureido]-1′-methyl-5,7-dihydro-4H-spiro(benzo[b]thiophene-6,2′-pyrrolidine)-3-carboxamide hydrochloride]	–	1000 to 10000	Emax at 2.8 µM [1]: 55%
CC(C)[N+]1(C)CCc2c(sc(NC(=O)Nc3ccc(Cl)cc3)c2C(N)=O)C1 (stereo not shown) [Example 191, 3-Carbamoyl-2-[3-(4-chlorophenyl)ureido]-6-isopropyl-6-methyl-4,5,6,7-tetrahydrothieno[2,3-c]pyridin-6-ium iodide]	–	< 1000	Emax at 8.3 µM [1]: 80%
C[N+]12CCCCC1Cc1c(sc(NC(=O)Nc3ccc(Cl)cc3)c1C(N)=O)C2 (racemic) [Example 177, (+/−)-3-Carbamoyl-2-[3-(4-chlorophenyl)ureido]-9-methyl-4,4a,5,6,7,8,9,10-octahydrothieno[3,2-b]quinolizin-9-ium iodide]	97	1000 to 10000	–
CCN1CCc2c(sc(NC(=O)Nc3ccc(Cl)cc3)c2C(=O)NCC(F)(F)F)C1 [Example 96, 2-[3-(4-Chlorophenyl)ureido]-6-ethyl-N-(2,2,2-trifluoroethyl)-4,5,6,7-tetrahydrothieno[2,3-c]pyridine-3-carboxamide hydrochloride]	–	1000 to 10000	Emax at 8.3 µM [1]: 57%
NC(=O)c1c(NC(=O)Nc2ccc(Cl)cc2)sc2c1CC1CCCCN1C2 (racemic) [Example 117, (+/−)-2-[3-(4-chlorophenyl)ureido]-4a,5,6,7,8,10-hexahydro-4H-thieno[3,2-b]quinolizine-3-carboxamide hydrochloride]	78	1000 to 10000	–
CCN1CCc2c(sc(NC(=O)Nc3ccc(C)c(Cl)c3)c2C(N)=O)C1 [Example 83, 2-[3-(3-Chloro-4-methylphenyl)ureido]-6-ethyl-4,5,6,7-tetrahydrothieno[2,3-c]pyridine-3-carboxamide hydrochloride]	63	1000 to 10000	–
CCN1CCc2c(sc(NC(=O)NC3CCCCC3)c2C(N)=O)C1 [Example 68, 2-(3-Cyclohexylureido)-6-ethyl-4,5,6,7-tetrahydrothieno[2,3-c]pyridine-3-carboxamide hydrochloride]	5	–	–
CC(C)NC(=O)CC[N+]1(C)CCc2c(sc(NC(=O)Nc3ccc(Cl)cc3)c2C(N)=O)C1 (stereo not shown) [Example 164, 3-Carbamoyl-2-[3-(4-chlorophenyl)ureido]-6-[3-(isopropylamino)-3-oxopropyl]-6-methyl-4,5,6,7-tetrahydrothieno[2,3-c]pyridin-6-ium trifluoroacetate]	–	1000 to 10000	Emax at 2.8 µM [1]: 60%
